Measured values reported in PMC5218480 (PLoS ONE, 2017).

Tested on: MV-4-11 cells
Test: Gene expression microarray analysis (Affymetrix PrimeView) and GSEA
Assay type: cell-based, human
Set-up: RFU PODN (11730768_x_at) / Fold change /veh PODN (11730768_x_at) / RFU LINC00158 (11744669_a_at) / Fold change /veh LINC00158 (11744669_a_at) / RFU DUSP10 (11751237_a_at) / Fold change /veh DUSP10 (11751237_a_at) / RFU ID3 (11757404_x_at) / Fold change /veh ID3 (11757404_x_at) / RFU PLEKHG5 (11737974_s_at) / Fold change /veh PLEKHG5 (11737974_s_at) / RFU LRRC4B (11730491_at) / Fold change /veh LRRC4B (11730491_at) / RFU GIMAP4 (11747438_a_at) / Fold change /veh GIMAP4 (11747438_a_at) / RFU KRT8 (11758183_x_at) / Fold change /veh KRT8 (11758183_x_at) / RFU CNN1 (11734310_a_at) / Fold change /veh CNN1 (11734310_a_at) / RFU VPS37D (11726825_at) / Fold change /veh VPS37D (11726825_at) / RFU C10orf10 (11716522_x_at) / Fold change /veh C10orf10 (11716522_x_at) / RFU KIR2DL2 /// KIR2DL4 /// KIR2DL5A /// KIR2DL5B /// KIR2DS1 /// KIR2DS2 /// KIR2DS3 /// KIR2DS4 /// KIR3DL3 /// KIR3DL3 /// KIR3DS1 (11738374_at) / Fold change /veh KIR2DL2 /// KIR2DL4 /// KIR2DL5A /// KIR2DL5B /// KIR2DS1 /// KIR2DS2 /// KIR2DS3 /// KIR2DS4 /// KIR3DL3 /// KIR3DL3 /// KIR3DS1 (11738374_at) / RFU C1QL1 (11718748_at) / Fold change /veh C1QL1 (11718748_at) / RFU TMPRSS4 (11747572_a_at) / Fold change /veh TMPRSS4 (11747572_a_at) / RFU HAMP (11756126_x_at) / Fold change /veh HAMP (11756126_x_at) / RFU RNFT2 (11725882_a_at) / Fold change /veh RNFT2 (11725882_a_at) / RFU NR4A2 (11747474_a_at) / Fold change /veh NR4A2 (11747474_a_at) / RFU ABCC12 (11746883_a_at) / Fold change /veh ABCC12 (11746883_a_at) / RFU TMEM136 (11760407_x_at) / Fold change /veh TMEM136 (11760407_x_at) / RFU CLDN22 /// WWC2 (11732394_at) / Fold change /veh CLDN22 /// WWC2 (11732394_at) / RFU HLA-DPB1 (11760878_x_at) / Fold change /veh HLA-DPB1 (11760878_x_at) / RFU SPINT1 (11716480_a_at) / Fold change /veh SPINT1 (11716480_a_at) / RFU GAP43 (11754022_s_at) / Fold change /veh GAP43 (11754022_s_at) / RFU A4GNT (11735810_at) / Fold change /veh A4GNT (11735810_at) / RFU PRB3 (11715151_x_at) / Fold change /veh PRB3 (11715151_x_at) / RFU TUBB4B (11761932_at) / Fold change /veh TUBB4B (11761932_at) / RFU CAPN14 (11732068_a_at) / Fold change /veh CAPN14 (11732068_a_at) / RFU TMCC2 (11721928_a_at) / Fold change /veh TMCC2 (11721928_a_at) / RFU IRGQ (11745062_a_at) / Fold change /veh IRGQ (11745062_a_at) / RFU FAM174B (11720279_a_at) / Fold change /veh FAM174B (11720279_a_at) / RFU TMPRSS4 (11748680_a_at) / Fold change /veh TMPRSS4 (11748680_a_at) / RFU FAM212B (11763350_a_at) / Fold change /veh FAM212B (11763350_a_at) / RFU PLEKHG5 (11743358_a_at) / Fold change /veh PLEKHG5 (11743358_a_at) / RFU ZSCAN30 (11745921_a_at) / Fold change /veh ZSCAN30 (11745921_a_at) / RFU CMKLR1 (11741424_a_at) / Fold change /veh CMKLR1 (11741424_a_at) / RFU LOC101060620 /// MAPK8IP1 (11723275_at) / Fold change /veh LOC101060620 /// MAPK8IP1 (11723275_at) / RFU SPTSSB (11747773_x_at) / Fold change /veh SPTSSB (11747773_x_at) / RFU PRSS12 (11739890_at) / Fold change /veh PRSS12 (11739890_at) / RFU BIN1 (11741810_x_at) / Fold change /veh BIN1 (11741810_x_at) / RFU WNT11 (11732464_a_at) / Fold change /veh WNT11 (11732464_a_at) / RFU C10orf10 (11716521_a_at) / Fold change /veh C10orf10 (11716521_a_at) / RFU C5orf56 (11738089_at) / Fold change /veh C5orf56 (11738089_at) / RFU CYB561 (11721691_x_at) / Fold change /veh CYB561 (11721691_x_at) / RFU ANKRD19P (11752326_a_at) / Fold change /veh ANKRD19P (11752326_a_at) / RFU OR2T12 /// OR2T33 /// OR2T8 (11738714_s_at) / Fold change /veh OR2T12 /// OR2T33 /// OR2T8 (11738714_s_at) / RFU VCAN (11748164_a_at) / Fold change /veh VCAN (11748164_a_at) / RFU JSRP1 (11732532_at) / Fold change /veh JSRP1 (11732532_at) / RFU KRTAP10-11 (11738290_x_at) / Fold change /veh KRTAP10-11 (11738290_x_at) / RFU MYO3A (11730013_a_at) / Fold change /veh MYO3A (11730013_a_at) / RFU EBF3 (11725865_a_at) / Fold change /veh EBF3 (11725865_a_at) / RFU CAMK2N1 (11719241_x_at) / Fold change /veh CAMK2N1 (11719241_x_at) / RFU C5orf56 (11738088_a_at) / Fold change /veh C5orf56 (11738088_a_at) / RFU OLFML3 (11715873_a_at) / Fold change /veh OLFML3 (11715873_a_at) / RFU LOC100653217 /// NTM (11731650_a_at) / Fold change /veh LOC100653217 /// NTM (11731650_a_at) / RFU MAPK11 (11762145_a_at) / Fold change /veh MAPK11 (11762145_a_at) / RFU FIZ1 (11724087_x_at) / Fold change /veh FIZ1 (11724087_x_at) / RFU OASL (11726364_x_at) / Fold change /veh OASL (11726364_x_at) / RFU SOX15 (11748057_x_at) / Fold change /veh SOX15 (11748057_x_at) / RFU CD79A (11719716_a_at) / Fold change /veh CD79A (11719716_a_at) / RFU HIST1H1D (11736915_at) / Fold change /veh HIST1H1D (11736915_at) / RFU CASKIN2 (11723855_a_at) / Fold change /veh CASKIN2 (11723855_a_at) / RFU LOC730098 (11760151_x_at) / Fold change /veh LOC730098 (11760151_x_at) / RFU OR4N2 (11742367_at) / Fold change /veh OR4N2 (11742367_at) / RFU PRRT2 (11749266_a_at) / Fold change /veh PRRT2 (11749266_a_at) / RFU SNX32 (11753110_a_at) / Fold change /veh SNX32 (11753110_a_at) / RFU CDHR5 (11726645_a_at) / Fold change /veh CDHR5 (11726645_a_at) / RFU RCAN1 (11760418_a_at) / Fold change /veh RCAN1 (11760418_a_at) / RFU FAM167A (11723789_a_at) / Fold change /veh FAM167A (11723789_a_at) / RFU FAM26E (11764081_at) / Fold change /veh FAM26E (11764081_at) / RFU ISYNA1 (11749810_s_at) / Fold change /veh ISYNA1 (11749810_s_at) / RFU ACY1 (11761880_at) / Fold change /veh ACY1 (11761880_at) / RFU 11764098_at / Fold change /veh 11764098_at / RFU SAMD14 (11745864_x_at) / Fold change /veh SAMD14 (11745864_x_at) / RFU NPB (11741838_a_at) / Fold change /veh NPB (11741838_a_at) / RFU TMPRSS6 (11731388_a_at) / Fold change /veh TMPRSS6 (11731388_a_at) / RFU KRTAP10-2 (11738614_at) / Fold change /veh KRTAP10-2 (11738614_at) / RFU ARHGAP8 /// PRR5-ARHGAP8 (11727945_x_at) / Fold change /veh ARHGAP8 /// PRR5-ARHGAP8 (11727945_x_at) / RFU KRTAP5-7 /// NADSYN1 (11734609_at) / Fold change /veh KRTAP5-7 /// NADSYN1 (11734609_at) / RFU RASL12 (11751679_a_at) / Fold change /veh RASL12 (11751679_a_at) / RFU CDKN2B (11736163_a_at) / Fold change /veh CDKN2B (11736163_a_at) / RFU PRF1 (11729649_at) / Fold change /veh PRF1 (11729649_at) / RFU, ZNF638 /// ZNF638-IT1 / Fold change vs veh, ZNF638 /// ZNF638-IT1 / RFU, PANK3 / Fold change vs veh, PANK3 / RFU, SH3YL1 / Fold change vs veh, SH3YL1 / RFU, ZEB2 / Fold change vs veh, ZEB2 / RFU, NRIP1 / Fold change vs veh, NRIP1 / RFU, PTTG1IP / Fold change vs veh, PTTG1IP / RFU, CAPN2 / Fold change vs veh, CAPN2 / RFU, MED14 / Fold change vs veh, MED14 / RFU, SNORA58 / Fold change vs veh, SNORA58 / RFU, C1orf63 / Fold change vs veh, C1orf63 / RFU, LRRFIP1 / Fold change vs veh, LRRFIP1 / RFU, NDUFAF7 / Fold change vs veh, NDUFAF7 / RFU, SLC12A2 / Fold change vs veh, SLC12A2 / RFU, IBTK / Fold change vs veh, IBTK / RFU, ESF1 / Fold change vs veh, ESF1 / Fold change vs veh, TMEM50B / RFU, TAOK1 / Fold change vs veh, TAOK1 / RFU, ACBD3 / Fold change vs veh, ACBD3 / RFU, TMA16 / Fold change vs veh, TMA16 / RFU, RWDD3 / Fold change vs veh, RWDD3 / RFU, BCAT1 / Fold change vs veh, BCAT1 / RFU, EDEM3 / Fold change vs veh, EDEM3 / RFU, TMEM33 / Fold change vs veh, TMEM33 / RFU, WDR75 / Fold change vs veh, WDR75 / RFU, AHCTF1 / Fold change vs veh, AHCTF1 / RFU, TFRC / Fold change vs veh, TFRC / RFU, ZDHHC17 / Fold change vs veh, ZDHHC17 / RFU, NOM1 / Fold change vs veh, NOM1 / RFU, ARL8B / Fold change vs veh, ARL8B / RFU, ZBTB11 / Fold change vs veh, ZBTB11 / RFU, TAMM41 / Fold change vs veh, TAMM41 / RFU, KIAA1704 /// LOC100996395 / Fold change vs veh, KIAA1704 /// LOC100996395 / RFU, ING1 / Fold change vs veh, ING1 / RFU, TRMT61B / Fold change vs veh, TRMT61B / RFU, FUBP3 / Fold change vs veh, FUBP3 / RFU, TP53 / Fold change vs veh, TP53 / RFU, TNKS2 / Fold change vs veh, TNKS2 / RFU, ZFP14 / Fold change vs veh, ZFP14 / RFU, ACTR2 / Fold change vs veh, ACTR2 / RFU, PPP3R1 / Fold change vs veh, PPP3R1 / RFU, PIK3R1 / Fold change vs veh, PIK3R1 / RFU, HNRNPA1 / Fold change vs veh, HNRNPA1 / RFU, RNF170 / Fold change vs veh, RNF170 / RFU, ZNF28 / Fold change vs veh, ZNF28 / RFU, RNGTT / Fold change vs veh, RNGTT / RFU, OGT / Fold change vs veh, OGT / RFU, BRD1 / Fold change vs veh, BRD1 / RFU, MARS / Fold change vs veh, MARS / RFU, ZNF655 / Fold change vs veh, ZNF655 / RFU, FAHD1 / Fold change vs veh, FAHD1 / RFU, BDP1 / Fold change vs veh, BDP1 / RFU, LRRCC1 / Fold change vs veh, LRRCC1 / RFU, ARID1A / Fold change vs veh, ARID1A / RFU, ZNF146 / Fold change vs veh, ZNF146 / RFU, ZNF330 / Fold change vs veh, ZNF330 / RFU, GPN3 / Fold change vs veh, GPN3 / RFU, C9orf123 / Fold change vs veh, C9orf123 / RFU, N4BP2L2 / Fold change vs veh, N4BP2L2 / RFU, ARFIP1 / Fold change vs veh, ARFIP1 / RFU, FAM179B / Fold change vs veh, FAM179B / RFU, BCL10 / Fold change vs veh, BCL10 / RFU, UHRF1BP1L / Fold change vs veh, UHRF1BP1L / RFU, BET1 / Fold change vs veh, BET1 / RFU, CNOT2 / Fold change vs veh, CNOT2 / RFU, ZNF268 / Fold change vs veh, ZNF268 / Fold change vs veh, ZNF507 / RFU, DGCR2 / Fold change vs veh, DGCR2 / RFU, WDSUB1 / Fold change vs veh, WDSUB1 / Fold change vs veh, HSP90B1 /// MIR3652 / RFU, ADSS / Fold change vs veh, ADSS / RFU, GK / Fold change vs veh, GK / RFU, ZNF148 / Fold change vs veh, ZNF148 / RFU, TAF9 / Fold change vs veh, TAF9 / RFU, SLC1A5 / Fold change vs veh, SLC1A5 / RFU, SLMO2 / Fold change vs veh, SLMO2 / RFU, ABCC4 / Fold change vs veh, ABCC4 / RFU, LOC101060439 /// RAP1B / Fold change vs veh, LOC101060439 /// RAP1B / RFU, RFX7 / Fold change vs veh, RFX7 / RFU, GTPBP10 / Fold change vs veh, GTPBP10 / RFU, CNEP1R1 / Fold change vs veh, CNEP1R1 / RFU, BIVM-ERCC5 /// ERCC5 / Fold change vs veh, BIVM-ERCC5 /// ERCC5 / RFU, ILF3 / Fold change vs veh, ILF3 / RFU 11762660_at / Fold change /veh 11762660_at / RFU VCAN (11757783_s_at) / Fold change /veh VCAN (11757783_s_at) / RFU DDX43 (11728927_at) / Fold change /veh DDX43 (11728927_at) / RFU KRT8 (11758188_x_at) / Fold change /veh KRT8 (11758188_x_at) / RFU NKD1 (11759106_at) / Fold change /veh NKD1 (11759106_at) / RFU SRD5A1 (11742802_a_at) / Fold change /veh SRD5A1 (11742802_a_at) / RFU TPSAB1 /// TPSB2 (11721975_s_at) / Fold change /veh TPSAB1 /// TPSB2 (11721975_s_at) / RFU GSTM3 (11746129_a_at) / Fold change /veh GSTM3 (11746129_a_at) / RFU IL23R (11737362_x_at) / Fold change /veh IL23R (11737362_x_at) / RFU TMEM51 (11727254_a_at) / Fold change /veh TMEM51 (11727254_a_at) / RFU PIWIL2 (11732686_x_at) / Fold change /veh PIWIL2 (11732686_x_at) / RFU ORM1 (11744905_x_at) / Fold change /veh ORM1 (11744905_x_at) / RFU CCDC152 (11743942_at) / Fold change /veh CCDC152 (11743942_at) / RFU ECM1 (11717891_a_at) / Fold change /veh ECM1 (11717891_a_at) / RFU IL23R (11748794_a_at) / Fold change /veh IL23R (11748794_a_at) / RFU TNFAIP8L3 (11732012_x_at) / Fold change /veh TNFAIP8L3 (11732012_x_at) / RFU MBOAT4 (11741988_at) / Fold change /veh MBOAT4 (11741988_at) / RFU 11764193_at / Fold change /veh 11764193_at / RFU TMEM53 (11763286_at) / Fold change /veh TMEM53 (11763286_at) / RFU MAGEB2 (11727129_at) / Fold change /veh MAGEB2 (11727129_at) / RFU TMEM200A (11744735_a_at) / Fold change /veh TMEM200A (11744735_a_at) / RFU CCDC152 (11751479_a_at) / Fold change /veh CCDC152 (11751479_a_at) / RFU FAM211A (11726209_a_at) / Fold change /veh FAM211A (11726209_a_at) / RFU RGS16 (11746705_a_at) / Fold change /veh RGS16 (11746705_a_at) / RFU VCAN (11755009_s_at) / Fold change /veh VCAN (11755009_s_at) / RFU RHOB (11743442_s_at) / Fold change /veh RHOB (11743442_s_at) / RFU RGS16 (11720943_a_at) / Fold change /veh RGS16 (11720943_a_at) / RFU RGS16 (11720944_at) / Fold change /veh RGS16 (11720944_at) / RFU, VPS4B / Fold change vs veh, VPS4B / RFU, CREB1 / Fold change vs veh, CREB1 / RFU, DNAJC13 / Fold change vs veh, DNAJC13 / RFU, GNAQ / Fold change vs veh, GNAQ / RFU, CDK5R1 / Fold change vs veh, CDK5R1 / RFU, ZRANB3 / Fold change vs veh, ZRANB3 / RFU, CUL4A / Fold change vs veh, CUL4A / RFU, CCNY / Fold change vs veh, CCNY / RFU, UFL1 / Fold change vs veh, UFL1 / RFU, COG3 / Fold change vs veh, COG3 / RFU, DIAPH2 / Fold change vs veh, DIAPH2 / RFU, SKA2 / Fold change vs veh, SKA2 / RFU, AFF3 / Fold change vs veh, AFF3 / RFU, LMF1 / Fold change vs veh, LMF1 / RFU, IPO11 / Fold change vs veh, IPO11 / RFU, DFFB / Fold change vs veh, DFFB / RFU, FOXP1 / Fold change vs veh, FOXP1 / RFU, CARD8 / Fold change vs veh, CARD8 / RFU, STRN3 / Fold change vs veh, STRN3 / RFU, ADK / Fold change vs veh, ADK / RFU, RASSF2 / Fold change vs veh, RASSF2 / RFU, WIPF1 / Fold change vs veh, WIPF1 / RFU, LARP1B / Fold change vs veh, LARP1B / RFU, RASA1 / Fold change vs veh, RASA1 / RFU, RB1 / Fold change vs veh, RB1 / RFU, PPFIA1 / Fold change vs veh, PPFIA1 / RFU, MAT2A / Fold change vs veh, MAT2A / RFU, CCT5 / Fold change vs veh, CCT5 / RFU, WDR92 / Fold change vs veh, WDR92 / RFU, CUX1 / Fold change vs veh, CUX1 / RFU, TTC7A / Fold change vs veh, TTC7A / RFU, TMEM135 / Fold change vs veh, TMEM135 / RFU, DEPTOR / Fold change vs veh, DEPTOR / RFU, CPM / Fold change vs veh, CPM / RFU, DNAJB6 / Fold change vs veh, DNAJB6 / RFU, CACNA2D3 / Fold change vs veh, CACNA2D3 / RFU, DTX4 / Fold change vs veh, DTX4 / RFU, TFCP2 / Fold change vs veh, TFCP2 / RFU, GMCL1 /// GMCL1P1 / Fold change vs veh, GMCL1 /// GMCL1P1 / RFU, AEBP2 / Fold change vs veh, AEBP2 / RFU, SNHG1 /// SNORD22 /// SNORD25 /// SNORD26 /// SNORD27 /// SNORD28 /// SNORD29 /// SNORD31 / Fold change vs veh, SNHG1 /// SNORD22 /// SNORD25 /// SNORD26 /// SNORD27 /// SNORD28 /// SNORD29 /// SNORD31 / Fold change (Aza/veh), C12orf56 (ProbeSet 11735607_a_at) / Fold change (ACY-1035/veh), C12orf56 (ProbeSet 11735607_a_at) / Fold change (Aza/veh), FGFR1OP (ProbeSet 11751329_s_at) / Fold change (ACY-1035/veh), FGFR1OP (ProbeSet 11751329_s_at) / Fold change (Aza/veh), VPS36 (ProbeSet 11739960_a_at) / Fold change (ACY-1035/veh), VPS36 (ProbeSet 11739960_a_at) / RFU SYPL1 (11715823_x_at) / Fold change /veh SYPL1 (11715823_x_at) / RFU IGFBP7 (11715501_s_at) / Fold change /veh IGFBP7 (11715501_s_at) / RFU REEP3 (11722064_at) / Fold change /veh REEP3 (11722064_at) / RFU IGLL1 (11728026_x_at) / Fold change /veh IGLL1 (11728026_x_at): dose or concentration left out as unconfirmed
Conditions: ProbeSet 11734937_a_at; LIST B

Nc1ccc(-c2cccs2)cc1NC(=O)c1ccc2c(c1)cc(C1CC1)n2CCN1CCOCC1 [ACY-1035]
RFU, CNOT2: 798.97 RFU
